One test addresses T1, human 11betaHSD1 (Homo sapiens, UniProt P28845).
T1 construct: HEK-293 cells stably transfected with full-length human 11betaHSD1 cDNA; expressed in transfected cells; host or cells: HEK-293
As to the kind of experiment: Cell-based assay: HEK-293 cells stably transfected with human 11betaHSD1, cortisol by competitive ELISA. The note with it: HEK-293 cells stably transfected with full-length human 11betaHSD1 cDNA, cortisone 100 nM, 1 hour. As for the experimental part:
The following day, serially diluted 11bHSD1 inhibitor compounds dissolved in DMSO were added to plating media supplemented with BSA (2 mg/ml final). The final DMSO concentration was 1%. Media was aspirated from plates, and compounds in media were added to each well. The plates were incubated at 37° C. for 1 hour to allow for cellular uptake of compounds. 10 μL of substrate (cortisone) was then added to each well (100 nM final concentration) and incubated for 1 hour at 37° C. Plates were then transferred to ice and 80 μL of media transferred to a 96-well plate and stored at −30° C.
Plates were washed with PBS, 0.1% Tween-20, then washed with PBS alone. Plates were blocked with Blocking Buffer (Tropix Cat# AI075) for 2 hours at room temperature. The plates were then washed as previously described. Assay samples were thawed, diluted 1:4 in DMEM, 2 mg/mL BSA, 1% DMSO, and 24 μL was transferred to wells of a pre-coated 384-well plate, as well as varying amounts of cortisol standard. To each well, 12 μL of cortisol-conjugate and 12 μL of anti-cortisol EIA antibody were added and incubated 2 hrs at room temperature on a orbital plate shaker. The wells were then emptied by inversion, then washed three times with 100 μL of Wash Buffer (Tropix), and then 2 times with 100 μL of Assay Buffer (Tropix). 60 μL of CDP-STAR (Tropix) was added to each well and incubated 10 minutes at room temperature. Chemiluminescence was measured using a Victor V Reader (Perkin Elmer). Cortisol in each sample was interpolated from a standard curve generated with known amounts of cortisol. IC50 values were calculated using the curve fitting software XLFit3 (IDBS).
On the technique in general: ELISA stands for enzyme-linked immunosorbent assay.

For a further test, the target named is human HSD1 (Homo sapiens, UniProt P28845). As to the kind of experiment: In vitro inhibition of purified human HSD1 (time-resolved fluorescence cortisol detection). The note with it: purified human HSD1, cortisone substrate, 30 min; read-out: hHSD1 IC50. It is filed as biochemical. As for the experimental part:
Purified human HSD1 was diluted in 50 mM Tris-HCl, 100 mM NaCl, 0.1 mg/ml BSA, 0.02% Lubrol, 20 mM MgCl2, 10 mM glucose 6-phosphate, 0.4 mM NADPH, 60 U/ml glucose 6-phosphate dehydrogenase to a concentration of 1.5 μg/ml (Enzyme Solution). […] Testing compounds (40 μM) in DMSO was diluted 3 fold in series in DMSO and further diluted 20 fold in Substrate Solution. Enzyme Solution (10 μl/well) was added into 384 well microtiter plates followed by diluted compound solutions (10 μl/well) and mixed well. Samples were then incubated at […] for 30 min. EDTA/biotin-cortisol solution (10 μl/well) in 28 mM EDTA, […], 50 mM Tris-HCl, 100 mM NaCl was then added followed by 5 ul/well of anti-cortisol antibody (3.2 μg/ml) in 50 mM Tris-HCl, 100 mM NaCl, 0.1 mg/ml BSA and the solution was incubated at 37 degrees for 30 min. […] Signals were quantitated by reading time-resolved fluorescence on a Victor 5 reader (Wallac).

Each structure is given as a SMILES string.

Drawing on patent publication US7622492B2, “Pyrazolones as inhibitors of 11β-hydroxysteroid dehydrogenase” (Hoffmann-La Roche Inc., priority 2005, dated 2009), this text covers IC50 for one compound.

By IC50 is commonly meant the concentration that inhibits the measured activity by half.

Sequence of human HSD1 (P28845 whole entry): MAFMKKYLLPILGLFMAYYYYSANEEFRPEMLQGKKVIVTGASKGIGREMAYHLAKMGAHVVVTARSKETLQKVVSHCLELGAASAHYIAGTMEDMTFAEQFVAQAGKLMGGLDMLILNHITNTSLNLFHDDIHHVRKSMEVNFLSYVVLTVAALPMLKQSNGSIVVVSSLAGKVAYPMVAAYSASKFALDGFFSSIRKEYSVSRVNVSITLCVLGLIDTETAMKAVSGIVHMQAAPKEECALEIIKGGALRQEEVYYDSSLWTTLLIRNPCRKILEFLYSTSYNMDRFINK
T1 sequence (P28845 whole entry): as above

Regarding `Cn1c2c(c(=O)n1-c1cccc(-c3ccccc3)c1)[C@H]1CC[C@]2(C)C1(C)C` [Example 43, (4S,7R)-2-Biphenyl-3-yl-1,7,8,8-tetramethyl-1,2,4,5,6,7-hexahydro-4,7-methano-indazol-3-one], the IC50 at human 11betaHSD1 stood at 25 nM; at human HSD1, 59 nM.
